# “And” between values parts separate entries of the source, which are not always exact repeats. Identical values can stand only once. “Also recorded” adds a separate entry of the source. Non-standard residues stand in square brackets, D forms with d. Residues, ends and D or L forms follow the SMILES beside them. dPhe(4-Cl) = N[C@H](Cc1ccc(Cl)cc1)C(=O)O; d2Nal = N[C@H](Cc1ccc2ccccc2c1)C(=O)O; dCit = NC(=O)NCCC[C@@H](N)C(=O)O; d3Pal = N[C@H](Cc1cccnc1)C(=O)O
# What was measured:
# [1] = Rat muscle experiment: cetrorelix content in the plasma; type: in vivo
# From the text: (§1) In the further rat muscle experiments shown in Table 9, in addition to the residual content in the muscle, the cetrorelix content in the plasma was additionally determined.
# [2] = Polarization microscopy: aggregation of cetrorelix solutions (days without aggregation); type: physicochemical
# Experimental: By means of polarization microscopy, aggregation investigations were carried out on solutions of various cetrorelix salts without or with addition of excipients.
# In the polarization light microscope with crossed polarizers, aggregated peptide solutions show images which are very similar to those of liquid-crystalline structures. In contrast to this, aggregate-free peptide solutions produce no such effects.
# (§2) After reconstitution of these lyophilizates, the solutions ([…]) are investgated in the following tests for aggregate formation and release behaviour: • Polarization microscopy (pol. mic.): days without aggregation. • Filterability in %: • Cetrorelix solutions are prepared according to a standardized procedure and filtered through 0.22 μm or 0.45 μm filters by means of centrifugation. The concentration of cetrorelix in the filtrate is determined by HPLC and indicated as a % value, based on the starting concentration before filtration (filterability in %). • in-vitro release form (RRS, release in Ringer's solution): • % released after 1 h and after 6 h. • The in-vitro release behaviour is determined at 37° C. in a flow procedure using Ringer's solution as medium. The concentration measurement is carried out by HPLC. Cetrorelix samples, corresponding to 10 mg of cetrorelix base, are weighed into the flow cell, mixed with 4 ml of water and stirred for 10 min.
# [3] = Rat animal experiment: cetrorelix residual content in the muscle 168 h after injection; type: in vivo; conditions: for Cetrorelix content in the muscle (168 h), % of the dose: rat
# Experimental: After reconstitution of these lyophilizates, the solutions (2.5 mg/ml of cetrorelix) are investgated in the following tests for aggregate formation and release behaviour: • Polarization microscopy (pol. mic.): days without aggregation. • Filterability in %: • Cetrorelix solutions are prepared according to a standardized procedure and filtered through 0.22 μm or 0.45 μm filters by means of centrifugation. The concentration of cetrorelix in the filtrate is determined by HPLC and indicated as a % value, based on the starting concentration before filtration (filterability in %). • in-vitro release form (RRS, release in Ringer's solution): • % released after 1 h and after 6 h. • The in-vitro release behaviour is determined at 37° C. in a flow procedure using Ringer's solution as medium. The concentration measurement is carried out by HPLC. Cetrorelix samples, corresponding to 10 mg of cetrorelix base, are weighed into the flow cell, mixed with 4 ml of water and stirred for 10 min.
# as §1
# [4] = In-vitro release in Ringer's solution (RRS), flow procedure at 37° C.; type: physicochemical
# Experimental: as §2
# [5] = Optical appearance of cetrorelix acetate solutions with excipients; type: physicochemical
# [6] = dose 1.5 mg/kg, inj. soln 3 mg/ml, listed as Acetate
# [7] = dose 3.0 mg/kg, inj. soln 15 mg/ml
# [8] = Cremophor ® EL 5.00%, cetrorelix 2.5 mg/ml
# [9] = Cremophor ® EL 10.00%, cetrorelix 2.5 mg/ml
# [10] = Cremophor ® EL 20.00%, cetrorelix 2.5 mg/ml
# [11] = Cremophor ® EL 20.00%, cetrorelix 5 mg/ml
# [12] = Galacturonic acid 2.50%, cetrorelix 2.5 mg/ml, pH 2.6
# [13] = Glucaric acid 2.50%, cetrorelix 2.5 mg/ml, pH 2.5
# [14] = L-glutamic acid 0.80%, cetrorelix 2.5 mg/ml, pH 3.8
# [15] = Solutol ® HS 15 5.00%, cetrorelix 2.5 mg/ml
# [16] = Solutol ® HS 15 10.00%, cetrorelix 2.5 mg/ml
# [17] = Solutol ® HS 15 20.00%, cetrorelix 2.5 mg/ml
# [18] = cetrorelix 2.5 mg/ml, Kollidon 0%
# [19] = cetrorelix 2.5 mg/ml, Kollidon 5%
# [20] = cetrorelix 2.5 mg/ml, Kollidon 10%
# [21] = cetrorelix 2.5 mg/ml, Kollidon 15%
# [22] = cetrorelix 2.5 mg/ml, Kollidon 20%
# [23] = cetrorelix 5 mg/ml, Kollidon 15%
# [24] = cetrorelix 5 mg/ml, Kollidon 20%
# [25] = conc. of cetrorelix from lyo 2.5 mg/ml
# [26] = conc. of cetrorelix from lyo 5 mg/ml
smiles,measurement,setting,value
CC(=O)N[C@H](Cc1ccc2ccccc2c1)C(=O)N[C@H](Cc1ccc(Cl)cc1)C(=O)N[C@H](Cc1cccnc1)C(=O)N[C@@H](CO)C(=O)N[C@@H](Cc1ccc(O)cc1)C(=O)N[C@H](CCCNC(N)=O)C(=O)N[C@@H](CC(C)C)C(=O)N[C@@H](CCCNC(=N)N)C(=O)N1CCC[C@H]1C(=O)N[C@H](C)C(N)=O [cetrorelix acetate] (Ac-[d2Nal][dPhe(4-Cl)][d3Pal]SY[dCit]LRP[dA]-NH2),"Cetrorelix content in the plasma, % of the dose",[1]; [6],92.2 % of the dose
same,"Cetrorelix content in the plasma, % of the dose",[1]; [7],28.7 % of the dose
same,Days without aggregation,"[2]; 2.5 mg/ml cetrorelix acetate, gluconic acid in reconstitution medium 0%, pH 4.7",1 days
same,Days without aggregation,"[2]; 2.5 mg/ml cetrorelix acetate, gluconic acid in reconstitution medium 0.0071%, pH 4.5",2 days
same,Days without aggregation,"[2]; 2.5 mg/ml cetrorelix acetate, gluconic acid in reconstitution medium 0.071%, pH 3.7",2 days
same,Days without aggregation,"[2]; 2.5 mg/ml cetrorelix acetate, gluconic acid in reconstitution medium 0.71%, pH 3.1",12 days
same,"Aggregation (microscopy): yes, after ... days",[2]; [8],10 days
same,Aggregation (microscopy): days without aggregation,[2]; [9],≧112 days
same,Aggregation (microscopy): days without aggregation,[2]; [10],≧112 days
same,"Aggregation (microscopy): yes, after ... day",[2]; [11],"yes, after 1 day"
same,Aggregation (microscopy): days without aggregation,[2]; [12],≧12 days
same,Aggregation (microscopy): days without aggregation,[2]; [13],≧12 days
same,"Aggregation (microscopy): yes, after ... days",[2]; [14],"yes, after 2 days"
same,"Aggregation (microscopy): yes, after ... days",[2]; [15],14 days
same,Aggregation (microscopy): days without aggregation,[2]; [16],≧112 days
same,Aggregation (microscopy): days without aggregation,[2]; [17],≧112 days
same,Days without aggregation,"[2]; acetate salt, cetrorelix 2.5 mg/ml, glucuronic acid addition: no, pH 4.7",0 days
same,Days without aggregation,"[2]; acetate salt, cetrorelix 2.5 mg/ml, glucuronic acid addition: yes, pH 3.0",>21 days
same,Days without aggregation,"[2]; acetate salt, cetrorelix 5 mg/ml, glucuronic acid addition: yes, pH 3.0",0 days
same,Days without aggregation with Kollidon ® 12 PF,[2]; [18],0 days
same,Days without aggregation with Kollidon ® 17 PF,[2]; [18],0 days
same,Days without aggregation with Kollidon ® 12 PF,[2]; [19],1 days
same,Days without aggregation with Kollidon ® 17 PF,[2]; [19],2 days
same,Days without aggregation with Kollidon ® 12 PF,[2]; [20],1 days
same,Days without aggregation with Kollidon ® 17 PF,[2]; [20],2 days
same,Days without aggregation with Kollidon ® 12 PF,[2]; [21],77 days
same,Days without aggregation with Kollidon ® 17 PF,[2]; [21],63 days
same,Days without aggregation with Kollidon ® 12 PF,[2]; [22],84 days
same,Days without aggregation with Kollidon ® 17 PF,[2]; [22],98 days
same,Days without aggregation with Kollidon ® 12 PF,[2]; [23],0 days
same,Days without aggregation with Kollidon ® 17 PF,[2]; [23],1 days
same,Days without aggregation with Kollidon ® 12 PF,[2]; [24],0 days
same,Days without aggregation with Kollidon ® 17 PF,[2]; [24],1 days
same,Aggregation-free duration,"[2]; cetrorelix acetate 2.5 mg/ml, 10% of α-cyclodextrin",7 days
same,Aggregation-free duration,"[2]; cetrorelix acetate 2.5 mg/ml, 20% of hydroxypropyl-β-cyclodextrin",24 days
same,Aggregation-free duration,"[2]; cetrorelix acetate 5 mg/ml, 10% of α-cyclodextrin",0 days
same,Aggregation-free duration,"[2]; cetrorelix acetate 5 mg/ml, 20% of hydroxypropyl-β-cyclodextrin",7 days
same,Aggregation-free duration,"[2]; cetrorelix acetate 7.5 mg/ml, 10% of α-cyclodextrin",0 days
same,Aggregation-free duration,"[2]; cetrorelix acetate 7.5 mg/ml, 20% of hydroxypropyl-β-cyclodextrin",10 days
same,Aggregation-free duration,"[2]; cetrorelix acetate 10 mg/ml, 10% of α-cyclodextrin",0 days
same,Aggregation-free duration,"[2]; cetrorelix acetate 10 mg/ml, 20% of hydroxypropyl-β-cyclodextrin",2 days
same,Aggregation-free duration,"[2]; cetrorelix acetate 15 mg/ml, 20% of hydroxypropyl-β-cyclodextrin",0 days
same,Aggregation-free duration,"[2]; cetrorelix acetate 15 mg/ml, 20% of γ-cyclodextrin",0 days
same,Pol. mic days without aggr.,[2]; [25],0 days
same,Pol. mic days without aggr.,[2]; [26],0 days
same,"Cetrorelix content in the muscle (168 h), % of the dose",[3]; [6],55.1 % of the dose
same,"Cetrorelix content in the muscle (168 h), % of the dose",[3]; [7],56.5 % of the dose
same,Rat % i.m. after 168 h,"[3]; residual content in the muscle, % of dose, conc. of cetrorelix 2.5 mg/ml",~55%
same,"RRS, [%] after 1 h",[4]; [25],12% and 13%
same,"RRS, [%] after 6 h",[4]; [25],24.5% and 35.9%
same,"RRS, [%] after 1 h",[4]; [26],10%
same,"RRS, [%] after 6 h",[4]; [26],35%
same,Appearance,[5]; [8],clear
same,Appearance,[5]; [9],clear
same,Appearance,[5]; [10],clear
same,Appearance,[5]; [11],"clear,; also recorded: viscose"
same,Appearance,[5]; [12],clear
same,Appearance,[5]; [13],clear
same,Appearance,[5]; [14],clear
same,Appearance,[5]; [15],clear
same,Appearance,[5]; [16],clear
same,Appearance,[5]; [17],clear

# Reference: patent US7696149B2, “Pharmaceutical administration form for peptides, process for its preparation, and use” (AEterna Zentaris GmbH, priority 2000, dated 2010)
